According to patent US20120010178A1, “METHODS AND COMPOUNDS FOR TREATMENT OF NEURODEGENERATIVE DISORDERS” (PRESIDENT AND FELLOWS OF HARVARD COLLEGE, priority 2008, published 2012):
“Also recorded” adds a separate entry of the source. Like-named read-outs stand apart in the source and are kept apart here.

Key:
SMN [1] = experiment: SMN levels in mouse (ES-cell derived) motor neurons; assay type: cell-based; conditions: for SMN levels in motor neurons (in words): mouse motor neurons
Method: Mouse HB9-GFP derived SMN deficient motor neuron cells were incubated for 2 days with compounds from libraries and collections.
Motor neurons were produced from mouse ES-cells expressing cherry fluorescent protein (CFP) under the control of the motor neuron-selective Hb9 promoter, as previously described (Wichterle et al., 2002).
GFP expressing motor neurons were derived from mouse ES cells as described below. After growing for approximately 1 week, motor neurons were treated with allsterpaullone. Two days after treatment with allsterpaullone, cells were fixed and stained with SMN antibody or GFP antibody.
mES cells were differentiated into motor neurons according to methods adapted from Wichterle et. al., Cell (2002), 110:385-397. Briefly, mES cells were grown to 70-80% confluence in 10-cm plates (Falcon) in ES cell medium. To form embryoid bodies, cells were washed once with PBS to eliminate mES medium and then incubated with 1 ml of 0.25% trypsin (GIBCO) for 5-10 min at 21-25° C. (RT). Cells were then resuspended in 10 ml of DM1 medium (DMEM-F12, GIBCO), 10% knockout serum (GIBCO), penicillin, streptomycin, glutamine (GIBCO) and 2-mercaptoethanol (GIBCO), counted and plated at a concentration of 200,000 cells per ml in Petri dishes (Falcon). Two days later, embryoid bodies were collected and resuspended into new Petri dishes containing DM1 medium supplemented with RAc (100 nM; stock 1 mM in DMSO, Sigma) and HhAg (100 nM). […] treatment was repeated with the same concentration of RAc (100 nM) and high concentration of HhAg (1 μM). On day 6, the embryoid bodies were collected in a 15-ml Falcon tube, and incubated in Earle's balanced salt solution with 20 units of Papain and 1,000 units of DNase I (Worthington Biochemical) for 10 min at 37° C. The mixture was then triturated with a 10-ml pipette and centrifugated for 5 min at 800 rpm. The resulting cell pellet was washed with PBS and resuspended in F12 medium (F12 medium, GIBCO) with 2% fetal bovine serum (GIBCO), B-27 supplement (GIBCO), (GDNF and BDNF, 20 ng ml^−1, R&D Systems). The cells were counted and plated on poly-ornithine coated 96-well plates (VWR).

SMN [2] = experiment: High-content fibroblast screen for compounds that modulate SMN level; conditions: human fibroblasts, 2-3 days with compound;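 note: Anti-SMN immunostaining with confocal imaging of nuclear and cytoplasmic SMN and gem counts, tested at 0.1, 1 and 10 uM, fold change relative to negative control wells on each plate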
Method: Human fibroblasts were incubated for 2-3 days with compounds from annotated collections. Cells were fixed and stained with an anti-SMN antibody. Confocal imaging was used to quantify SMN fluorescence in nucleus and cytoplasm and count Gems. Data were collected and subsequently analyzed by clustering compounds by suspected mechanism of action and chemical structure.
Following optimization of assay conditions on day 0, total of 500 human fibroblasts (GM09677 line) per well were seeded in 384-well plates, on day 3 they were treated with compounds (robot CyBio) from the annotated collections and on the 5 day plates were fixed and stained (robot MAPD) with an anti-SMN antibody and secondary antibody conjugated with 448 fluorophore (FIG. 19a). Compounds from the libraries were added in duplicate at three final concentrations of 10, 1 and 0.1 uM.
SMN detection was done on the automated confocal microscope Opera PerkinElmer with separate fluorescent exposures to 488 nM laser for and a UV light source to detect nuclei stained with Hoechst 33258 with a 20× objective.
After scanning on the Opera, an XML file extraction workflow, designed with Inforsense KDE, was used to assemble the data from multiple replicate plates of each HCS experiment including the quantitative parameters described above and chemical identities, chemical concentrations and indications of which wells were used for positive and negative controls. […] The fold-induction of SMN intensity values for each well treated with a library chemical were normalized to the SMN average intensity in multiple negative control wells per plate.
Since it is not known which form of SMN increase is the most essential, hits that scored in a duplicate at least in two different parameters greater than 1.3 fold at any of the three concentrations were selected (FIG. 19d). […] Further, 220 compounds were screened in the absence of anti-SMN primary antibody with the same assay conditions, to filter out the fluorescent compounds.

SMN [3] = experiment: SMN immunofluorescence quantification (cytoplasm, nucleus, GEMs) in fibroblasts from SMA patients; assay type: cell-based, human; conditions: for levels of cytoplasmic and nuclear SMN (in words): SMA patient fibroblasts, substance alone
Method: Specifically, fibroblasts from patients suffering from SMA were treated with Ionomycin (a channel modulator), Ouabain (a cardiac glycoside and channel modulator), PDGF, SAHA (an HDAC inhibitor), Lactacystin (a proteasome inhibitor) or WIN 55,212-2 (a cannabinoid receptor […] and GPCR ligand) for 72 hours. The cells were fixed with methanol/acetone and stained with Pharmingen BD antibodies, followed by 488 AlexaFluor staining. Images were obtained with 60× lens on Zeiss LSM510 META on an inverted confocal microscope.
For example, fibroblasts from patients suffering from SMA were treated with Ouabain, Digoxin or Lanatoside at a concentration of 0, 2.5 nM, 5 nM, 10 nM, 20 nM, 40 nM, 80 nM, […] for 72 hours. The cells were fixed with methanol/acetone and stained with Pharmingen BD antibodies, followed by 488 AlexaFluor staining. Images were obtained with 60× lens on Zeiss LSM510 META on an inverted confocal microscope.
An assay was established for high-content evaluation of SMN protein level in different cellular compartments after treatment with small molecules. SMN protein was visualized by immunofluorescent staining and multiple fields from each plate well were scanned by an automated confocal Opera microscope. […] For each well, the algorithm generated quantitative parameters representing number of cells, as well as SMN fluorescent intensity per cell in cytoplasm, nucleus, number and intensity of GEMs (FIG. 15). […] During the assay transfer to the robotic platform fixation with the ice cold methanol was technically limited, therefore to preserve the maximum possible window we chose to perform the screen on parental fibroblast with PFA fixation.
For fibroblast assays, human fibroblasts lines GM09677 (derived from patient with SMA type 1 disease) and GM03814 (derived from unaffected parental SMA carriers) were used (Coriell Cell Repositories). […] For secondary assays cells from GM09677 line were used.
Fibroblasts were grown in MEM media (Invitrogen) supplemented with 5% Fetal Bovine Serum (FBS, Invitrogen), 2 mM glutamine and 1% penicillin-streptomycin (100 U/ml) in a presence of 5% CO2 at 37° C. For drug treatments, cells were plated and treated 24 h later with 10 μM MG132 (Biomol International), […] Calpeptin (Biomol International), 10 mM ammonium chloride, 1 μM myristoylated PKI, or vehicle for the designated times.
(§1) Compounds were stored at appropriate temperature and dissolved accordingly to the manufacturers (Tocris, Enzo, EMD and Sigma-Aldrich) in DMSO (Sigma-Aldrich), unless stated otherwise (Monensin Na in EtOH, DMPQ in water). Growth factors and PDGF neutralizing antibodies (R&D Systems) were reconstituted with buffers recommended by the supplier. For generation of the dose curves, 1×10^3 fibroblasts were plated on to 96-well Greiner Senso plates (VWR) and treated with compounds on the second day then fixed and stained at the indicated time points. For GSK inhibitors and performing p-GSK3b(Ser9) detection, two days after plating growth media containing 5% FBS was replaced to the media with FBS reduced down to 0.5%, to starve cells for 72 hours. Addition of the GSK inhibitors was done in 5% FBS enriched media.

SMN [4] = experiment: Inhibition of PDGF-stimulated SMN increase in fibroblasts by kinase/receptor inhibitors; assay type: cell-based, human; conditions: SMA patient fibroblasts, PDGF plus inhibitor or neutralizing antibody
Method: Fibroblasts from patients suffering from SMA were treated with PDGF at a concentration of 0, 0.3 ng/ml, 0.63 ng/ml, 1.25 ng/ml, 2.5 ng/ml, 5 ng/ml, 10 ng/ml or 20 ng/ml, in the absence or in the presence of 25 uM DMPQ or 25 uM AG-1296 respectively for 72 hours. The levels of both cytoplasmic and nuclear SMN were detected and quantified using the method described in Example 2.
Fibroblasts from patients suffering from SMA were either control treated or treated with PDGF at a concentration of 0, 0.63 ng/ml, 1.25 ng/ml, 2.5 ng/ml, 5 ng/ml, 10 ng/ml or 20 ng/ml, in the absence or in the presence of 50 uM LY294002 or 2 uM P1-103 respectively for 72 hours. The levels of both cytoplasmic and nuclear SMN were detected and quantified using the method described in Example 2.
Fibroblasts from patients suffering from SMA were either control treated or treated with PDGF at a concentration of 0, 0.63 ng/ml, 1.25 ng/ml, 2.5 ng/ml, 5 ng/ml, 10 ng/ml or 20 ng/ml, in the absence or in the presence of 2 uM Papamycin for 72 hours. The levels of both cytoplasmic and nuclear SMN were detected and quantified using the method described in Example x.
A range of concentrations were tested in order not to miss the effects. SMN level were evaluated by Opera Evoteck in each cellular compartment and to assess the cell numbers that are summarized in the Table 3.
as §1, with “media. As previously described, starvation increases levels of constitutively activate GSK3b kinase, allowing to achieve a more dramatic inhibitory effect when GSK inhibitors are added together with growth factors that are also known to inhibit GSK by Ser-9 phosphorylation. […] For all compounds and growth factors control wells received solvent in amount equivalent to the highest concentration of the compound in a dose curve. For PDGF inhibitory studies, cells were pre-treated with kinase inhibitors for 2 hours and PDGF was added with a fresh kinase inhibitor solution and incubated for an additional 3 days.” for “media.”

PC12 cells = conditions: cited from earlier work
[5] = target: T1, GSK3b (Ser-9 phosphorylation) (Homo sapiens, UniProt P49841); experiment: p-GSK(Ser9) phosphorylation in patient fibroblasts (western blot / immunofluorescence); assay type: cell-based
T1 construct: endogenous in cells; host or cells: SMA patient fibroblasts (GM09677), starved in 0.5% FBS before treatment
Method: as §1, with “media. As previously described, starvation increases levels of constitutively activate GSK3b kinase, allowing to achieve a more dramatic inhibitory effect when GSK inhibitors are added together with growth factors that are also known to inhibit GSK by Ser-9 phosphorylation. […] For all compounds and growth factors control wells received solvent in amount equivalent to the highest concentration of the compound in a dose curve. For PDGF inhibitory studies, cells were pre-treated with kinase inhibitors for 2 hours and PDGF was added with a fresh kinase inhibitor solution and incubated for an additional 3 days.” for “media.”

motor neurons = experiment: Motor neuron survival (mouse motor neurons, compound treatment); assay type: cell-based
Method: Mouse motor neurons were treated with […] inhibitors. The levels of both cytoplasmic and nuclear SMN were detected and quantified using the method described in Example 2. The results shown in FIG. 14b indicate that […] inhibitors increase motor neuron survival.
Another way of assessing motor neuron survival is by withdrawing the neurotrophic factors from the media. Briefly, motor neurons are grown in media containing neurotrophic factors. The neurotrophic factors are then withdrawn from the growth media, e.g., cells transferred to media having no neurotrophic factors or neurotrophic factor containing media exchanged with neurotrophic factors lacking media. The compound of interest is added and motor neurons are counted on a daily basis.

T1 sequence (P49841 whole entry): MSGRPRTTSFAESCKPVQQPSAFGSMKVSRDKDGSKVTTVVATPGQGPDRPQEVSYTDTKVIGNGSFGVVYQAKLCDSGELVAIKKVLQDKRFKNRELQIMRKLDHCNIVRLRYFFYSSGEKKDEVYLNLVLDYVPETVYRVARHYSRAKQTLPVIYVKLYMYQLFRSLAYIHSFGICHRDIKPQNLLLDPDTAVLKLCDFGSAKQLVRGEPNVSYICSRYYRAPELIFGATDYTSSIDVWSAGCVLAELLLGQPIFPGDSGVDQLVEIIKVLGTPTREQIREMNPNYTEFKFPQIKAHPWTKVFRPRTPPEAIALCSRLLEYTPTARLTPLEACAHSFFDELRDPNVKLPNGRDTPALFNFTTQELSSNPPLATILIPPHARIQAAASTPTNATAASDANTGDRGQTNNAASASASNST

## C=C(C)[C@H]1Cc2c(ccc3c2O[C@@H]2COc4cc(OC)c(OC)cc4[C@@H]2C3=O)O1 [roteonone]
SMN [1]
  spot intensity in ES-derived motor neurons: decrease
  SMN levels in motor neurons (in words): decrease

## COc1cc2c(cc1OC)[C@@H]1C(=O)c3ccc4c(c3O[C@@H]1CO2)C=CC(C)(C)O4 [deguelin]
SMN [1]
  spot intensity in ES-derived motor neurons: decrease
  SMN levels in motor neurons (in words): decrease

## COc1cc2ncc(-c3ccccc3)nc2cc1OC [AG-1296]
SMN [2]
  SMN level in fibroblast screen (increase or decrease): decreased SMN
SMN [3]; added to the regular serum media in which cells are maintained, no added PDGF
  decrease of basal level of SMN: 20%
SMN [4]
  PDGF-stimulated SMN increase in presence of inhibitor (in words): sufficient to prevent PDGF effect on SMN; also recorded: abrogated
SMN [4]; listed as AG-1236
  PDGF-stimulated SMN increase in presence of inhibitor (in words): blocked; also recorded: abolished

## Cn1cc(C2=C(c3ccc(Cl)cc3Cl)C(=O)NC2=O)c2ccccc21 [SB216763]
PC12 cells
  protection from EGTA induced death: able to protect PC12 cells from EGTA induced death

## Oc1cccc(-c2nc(N3CCOCC3)c3oc4ncccc4c3n2)c1 [PI-103]
SMN [2]
  SMN level in fibroblast screen (increase or decrease): decreased SMN
SMN [4]
  PDGF-stimulated SMN increase in presence of inhibitor (in words): PDGF does not increase the levels of SMN; also recorded: able to prevent PDGF induced SMN increase in all cellular compartments; also recorded: completely abolished
SMN [4]; listed as P1-103
  PDGF-stimulated SMN increase in presence of inhibitor (in words): abrogated

## COc1ccc(CNC(=O)Nc2ncc([N+](=O)[O-])s2)cc1 [AR-A014418]
SMN [2]
  SMN level in fibroblast screen (increase or decrease): SMN is increase
SMN [3]; at a concentration of 23 μM
  SMN level fold increase: 2 fold
[5]; patient fibroblasts
  p-GSK-Ser9 phosphorylation (in words): promoted phosphorylation of p-GSK-Ser9

## CHIR98014
SMN [3]
  SMN level fold increase: over 2.5 fold
[5]
  p-GSK-Ser9 phosphorylation (in words): promoted phosphorylation of p-GSK-Ser9

## O=C1Cc2c([nH]c3ccc(Br)cc23)-c2ccccc2N1 [kenpaullone, 9-bromopaullone]
Motor neurons
  motor neuron survival (in words): promote motor neuron survival
SMN [1]
  SMN levels in motor neurons (in words): without increasing SMN protein levels

## COc1cc(OC)c2cc(-c3ccncc3)cnc2c1.Cl.Cl [DMPQ]
SMN [2]
  SMN level in fibroblast screen (increase or decrease): decreased SMN
SMN [3]
  levels of cytoplasmic and nuclear SMN (in words): decreases
SMN [3]; listed as DMPQ dihydrochloride
  levels of cytoplasmic and nuclear SMN (in words): decrease
SMN [4]
  PDGF-stimulated SMN increase in presence of inhibitor (in words): sufficient to prevent PDGF effect on SMN; also recorded: abrogated; also recorded: blocked; also recorded: abolished

## CC(/C=C/C(=O)NO)=C\[C@@H](C)C(=O)c1ccc(N(C)C)cc1 [Trichostatin]
SMN [1]
  SMN levels in motor neurons (in words): increase SMN
SMN [1]; listed as Trichastatin
  SMN levels in motor neurons (in words): increase SMN levels
SMN [3]; fibroblasts
  effect on GEMs (number / intensity, in words): increased GEM counts at the lower concentrations
SMN [3]; fibroblasts, higher dosage
  nuclear SMN at the higher dosage (in words): increased nuclear SMN predominantly
